# According to PubChem BioAssay (NCI):
#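 In this assay, cells in 96-well plates receive the compound at five concentrations for 48 hours. Endpoints are linearly interpolated between the surrounding concentrations. TGI marks complete inhibition of growth.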
# Tests used:
# Test in all cases: NCI-60 cell line screen, 48 h
# [1] = test system: 786-0 renal
# [2] = test system: A549 NSCLC
# [3] = test system: ACHN renal
# [4] = test system: CAKI-1 renal
# [5] = test system: CCRF-CEM leukemia
# [6] = test system: COLO 205 colon
# [7] = test system: DLD-1 colon
# [8] = test system: DMS 114 small cell lung
# [9] = test system: DMS 273 small cell lung
# [10] = test system: EKVX NSCLC
# [11] = test system: HCC-2998 colon
# [12] = test system: HCT-116 colon
# [13] = test system: HCT-15 colon
# [14] = test system: HL-60(TB) leukemia
# [15] = test system: HOP-18 NSCLC
# [16] = test system: HOP-62 NSCLC
# [17] = test system: HT29 colon
# [18] = test system: IGROV1 ovarian
# [19] = test system: K-562 leukemia
# [20] = test system: KM12 colon
# [21] = test system: KM20L2 colon
# [22] = test system: LOX IMVI melanoma
# [23] = test system: LXFL 529 NSCLC
# [24] = test system: M14 melanoma
# [25] = test system: M19-MEL melanoma
# [26] = test system: MALME-3M melanoma
# [27] = test system: MOLT-4 leukemia
# [28] = test system: NCI-H226 lung
# [29] = test system: NCI-H23 lung
# [30] = test system: NCI-H460 lung
# [31] = test system: NCI-H522 lung
# [32] = test system: OVCAR-3 ovarian
# [33] = test system: OVCAR-4 ovarian
# [34] = test system: OVCAR-5 ovarian
# [35] = test system: OVCAR-8 ovarian
# [36] = test system: RPMI-8226 leukemia
# [37] = test system: RXF 393 renal
# [38] = test system: SF-268 CNS
# [39] = test system: SF-295 CNS
# [40] = test system: SF-539 CNS
# [41] = test system: SK-MEL-2 melanoma
# [42] = test system: SK-MEL-28 melanoma
# [43] = test system: SK-MEL-5 melanoma
# [44] = test system: SK-OV-3 ovarian
# [45] = test system: SN12C renal
# [46] = test system: SNB-19 CNS
# [47] = test system: SNB-75 CNS
# [48] = test system: SNB-78 CNS
# [49] = test system: SW-620 colon
# [50] = test system: TK-10 renal
# [51] = test system: U251 CNS
# [52] = test system: UACC-257 melanoma
# [53] = test system: UACC-62 melanoma
# [54] = test system: UO-31 renal
# [55] = test system: XF 498 CNS
# [56] = test system: A498 renal
# [57] = test system: BT-549 breast
# [58] = test system: DU-145 prostate
# [59] = test system: HOP-92 NSCLC
# [60] = test system: HS 578T breast
# [61] = test system: MDA-MB-231 breast
# [62] = test system: MDA-MB-435
# [63] = test system: MDA-N
# [64] = test system: PC-3 prostate
# [65] = test system: SR leukemia
# [66] = test system: T-47D breast
smiles,measurement,setting,value
COC(=O)/C(C#N)=C1\CCC(OC)N1 (centres undefined),TGI,[1],> 100 µM
same,TGI,[2],> 100 µM
same,TGI,[3],> 100 µM
same,TGI,[4],> 100 µM
same,TGI,[5],> 100 µM
same,TGI,[6],> 100 µM
same,TGI,[7],> 100 µM
same,TGI,[8],> 100 µM
same,TGI,[9],> 100 µM
same,TGI,[10],> 100 µM
same,TGI,[11],> 100 µM
same,TGI,[12],> 100 µM
same,TGI,[13],> 100 µM
same,TGI,[14],> 100 µM
same,TGI,[15],> 100 µM
same,TGI,[16],> 100 µM
same,TGI,[17],> 100 µM
same,TGI,[18],> 100 µM
same,TGI,[19],> 100 µM
same,TGI,[20],> 100 µM
same,TGI,[21],> 100 µM
same,TGI,[22],> 100 µM
same,TGI,[23],> 100 µM
same,TGI,[24],> 100 µM
same,TGI,[25],> 100 µM
same,TGI,[26],> 100 µM
same,TGI,[27],> 100 µM
same,TGI,[28],> 100 µM
same,TGI,[29],> 100 µM
same,TGI,[30],> 100 µM
same,TGI,[31],> 100 µM
same,TGI,[32],> 100 µM
same,TGI,[33],> 100 µM
same,TGI,[34],> 100 µM
same,TGI,[35],> 100 µM
same,TGI,[36],> 100 µM
same,TGI,[37],> 100 µM
same,TGI,[38],> 100 µM
same,TGI,[39],> 100 µM
same,TGI,[40],> 100 µM
same,TGI,[41],> 100 µM
same,TGI,[42],> 100 µM
same,TGI,[43],> 100 µM
same,TGI,[44],> 100 µM
same,TGI,[45],> 100 µM
same,TGI,[46],> 100 µM
same,TGI,[47],> 100 µM
same,TGI,[48],> 100 µM
same,TGI,[49],> 100 µM
same,TGI,[50],> 100 µM
same,TGI,[51],> 100 µM
same,TGI,[52],> 100 µM
same,TGI,[53],> 100 µM
same,TGI,[54],> 100 µM
same,TGI,[55],> 100 µM
COc1cccc2c1C(=O)c1c(O)c3c(c(O)c1C2=O)C[C@@](O)(C(=O)CO)C[C@@H]3OC1CC(N(C)C)C(O)C(C)O1 (some centres undefined),TGI,[1],1.51 µM
same,TGI,[56],< 0.0195 µM
same,TGI,[2],0.785 µM
same,TGI,[3],0.0966 µM
same,TGI,[57],0.556 µM
same,TGI,[4],0.0733 µM
same,TGI,[5],7.59 µM
same,TGI,[6],0.0186 µM
same,TGI,[7],0.176 µM
same,TGI,[8],0.204 µM
same,TGI,[9],0.158 µM
same,TGI,[58],0.803 µM
same,TGI,[10],0.413 µM
same,TGI,[11],0.258 µM
same,TGI,[12],12.3 µM
same,TGI,[13],0.765 µM
same,TGI,[14],0.0206 µM
same,TGI,[15],2.95 µM
same,TGI,[16],0.272 µM
same,TGI,[59],0.312 µM
same,TGI,[60],0.0344 µM
same,TGI,[17],1.82 µM
same,TGI,[18],0.183 µM
same,TGI,[19],9.41 µM
same,TGI,[20],0.338 µM
same,TGI,[21],0.591 µM
same,TGI,[22],0.0102 µM
same,TGI,[23],1.6 µM
same,TGI,[24],0.104 µM
same,TGI,[26],0.0576 µM
same,TGI,[61],0.615 µM
same,TGI,[62],0.165 µM
same,TGI,[63],0.0833 µM
same,TGI,[27],0.299 µM
same,TGI,[28],0.0814 µM
same,TGI,[29],0.0946 µM
same,TGI,[30],0.0167 µM
same,TGI,[31],0.0922 µM
same,TGI,[32],0.858 µM
same,TGI,[33],0.266 µM
same,TGI,[34],0.352 µM
same,TGI,[35],1.52 µM
same,TGI,[64],0.102 µM
same,TGI,[36],0.825 µM
same,TGI,[37],0.0827 µM
same,TGI,[38],0.36 µM
same,TGI,[39],0.173 µM
same,TGI,[40],0.121 µM
same,TGI,[41],0.0885 µM
same,TGI,[42],0.168 µM
same,TGI,[43],0.0455 µM
same,TGI,[44],1.76 µM
same,TGI,[45],1.14 µM
same,TGI,[46],0.649 µM
same,TGI,[47],0.138 µM
same,TGI,[48],0.645 µM
same,TGI,[65],0.0188 µM
same,TGI,[49],1.38 µM
same,TGI,[66],0.0969 µM
same,TGI,[50],2.28 µM
same,TGI,[51],2.75 µM
same,TGI,[52],0.153 µM
same,TGI,[53],0.0261 µM
same,TGI,[54],0.427 µM
same,TGI,[55],0.0553 µM
O=C(O)[C@@H](NS(=O)(=O)c1ccc(F)cc1)c1ccccc1,TGI,[1],> 100 µM
same,TGI,[2],> 100 µM
same,TGI,[3],> 100 µM
same,TGI,[4],> 100 µM
same,TGI,[5],> 100 µM
same,TGI,[6],> 100 µM
same,TGI,[7],> 100 µM
same,TGI,[8],> 100 µM
same,TGI,[9],> 100 µM
same,TGI,[10],> 100 µM
same,TGI,[11],> 100 µM
same,TGI,[12],> 100 µM
same,TGI,[13],> 100 µM
same,TGI,[15],> 100 µM
same,TGI,[16],> 100 µM
same,TGI,[17],> 100 µM
same,TGI,[18],> 100 µM
same,TGI,[19],> 100 µM
same,TGI,[21],> 100 µM
same,TGI,[22],> 100 µM
same,TGI,[23],> 100 µM
same,TGI,[24],> 100 µM
same,TGI,[25],> 100 µM
same,TGI,[26],> 100 µM
same,TGI,[27],> 100 µM
same,TGI,[28],> 100 µM
same,TGI,[29],> 100 µM
same,TGI,[30],> 100 µM
same,TGI,[31],> 100 µM
same,TGI,[32],> 100 µM
same,TGI,[33],> 100 µM
same,TGI,[34],> 100 µM
same,TGI,[35],> 100 µM
same,TGI,[36],> 100 µM
same,TGI,[37],> 100 µM
same,TGI,[38],> 100 µM
same,TGI,[39],> 100 µM
same,TGI,[40],> 100 µM
same,TGI,[41],> 100 µM
same,TGI,[42],> 100 µM
same,TGI,[43],> 100 µM
same,TGI,[44],> 100 µM
same,TGI,[45],> 100 µM
same,TGI,[46],> 100 µM
same,TGI,[47],> 100 µM
same,TGI,[48],> 100 µM
same,TGI,[49],> 100 µM
same,TGI,[50],> 100 µM
same,TGI,[51],> 100 µM
same,TGI,[52],> 100 µM
same,TGI,[53],> 100 µM
same,TGI,[54],> 100 µM
same,TGI,[55],> 100 µM
CC[C@H]1CC(=O)c2c(cc3c(c2O)C(=O)c2ccccc2C3=O)[C@@]1(C#N)C(=O)OC(C)(C)C,TGI,[1],46.4 µM
same,TGI,[2],> 100 µM
same,TGI,[3],31.7 µM
same,TGI,[6],3.58 µM
same,TGI,[7],7.08 µM
same,TGI,[8],7.97 µM
same,TGI,[9],5.97 µM
same,TGI,[10],36.2 µM
same,TGI,[11],17.9 µM
same,TGI,[12],8.15 µM
same,TGI,[13],5.07 µM
same,TGI,[15],14.3 µM
same,TGI,[16],5.82 µM
same,TGI,[59],> 100 µM
same,TGI,[17],10.1 µM
same,TGI,[18],7.11 µM
same,TGI,[20],7.77 µM
same,TGI,[21],47.4 µM
same,TGI,[22],36.8 µM
same,TGI,[23],> 100 µM
same,TGI,[24],14.5 µM
same,TGI,[25],15.8 µM
same,TGI,[26],17.8 µM
same,TGI,[27],8.62 µM
same,TGI,[28],8.82 µM
same,TGI,[29],11.2 µM
same,TGI,[30],7.54 µM
same,TGI,[31],6.74 µM
same,TGI,[32],11 µM
same,TGI,[34],46.5 µM
same,TGI,[35],15 µM
same,TGI,[36],> 100 µM
same,TGI,[37],23.1 µM
same,TGI,[38],> 100 µM
same,TGI,[39],20.9 µM
same,TGI,[40],14.3 µM
same,TGI,[41],5.85 µM
same,TGI,[42],23 µM
same,TGI,[43],3.48 µM
same,TGI,[44],> 100 µM
same,TGI,[45],12.7 µM
same,TGI,[47],32 µM
same,TGI,[48],> 100 µM
same,TGI,[65],> 100 µM
same,TGI,[49],13.4 µM
same,TGI,[50],37.5 µM
same,TGI,[51],53.3 µM
same,TGI,[52],5.55 µM
same,TGI,[53],50.6 µM
same,TGI,[54],8.6 µM
same,TGI,[55],7.67 µM
